# According to patent publication US9078831B2, “Cosmetic treatment method using a compound that can be condensed in situ and a UV-radiation-filtering agent” (L'Oreal, priority 2009, dated 2015):
# How the values were obtained:
# [1] = Persistence towards water (water resistance, SPF before and after baths) in vivo; set-up: species or system volunteers; details: APTES layer under Example 2, in words
# Method: (§1) The screening effectiveness and the persistence towards water of a solution of UV screening agents, applied to a condensed deposited layer of APTES, in comparison with a solution deposited on bare skin, are evaluated and compared at different concentrations. The UV screening agents tested are Phenylbenzimidazole Sulfonic Acid and Terephthalylidene Dicamphor Sulfonic Acid.
# (§2) The studies were carried out on 5 volunteers of phototype I, II or III. The studies targeted exclusively at determining the screening effectiveness took place over 2 consecutive days, when 3 days were necessary for measurements of persistence towards water. On the first day, the screening formulation is applied at 2 mg per cm^2 on bare skin or on a condensed deposited layer of APTES. The volunteers are subsequently exposed to ultraviolet radiation. Erythema is read and the SPF is defined 24 h later. In the case of a test of persistence towards water, the same solutions or pairs of solutions are applied on the second day. The volunteers are immersed in 2 consecutive baths of water, each of 20 minutes, Wore being again exposed to UV radiation. The post-bath SPF is determined during the third test day. The water resistance (WR) is defined as: […]
# The water resistance of the 12% solution of UV screening agents was also evaluated in vivo, with and without APTES. […]
# [2] = Screening effectiveness (SPF) in vivo; set-up: species or system volunteers; details: spread over a deposited layer of APTES versus bare skin; 2 mg per cm^2; erythema read 24 h later
# Method: as §1
# as §2, with “day.” for “day. The water resistance (WR) is defined as:”
# The SPF values of the 8% and 12% solutions of UV screening agents are measured, which measurements are taken after spreading over bare skin or over deposited layers more or less concentrated in APTES. […]
smiles,measurement,setting,value
"CCO[Si](CCCN)(OCC)OCC [APTES, γ-aminopropyltriethoxysilane]",resistance to water of the UV screening agents,[1],significantly increase the resistance to water
same,SPF in vivo,[2],SPF increases in proportion as the amount of APTES spread beforehand over the skin increases
